Experimental data published in US11306092B2, “Amino indole compounds useful as TLR inhibitors” (BRISTOL-MYERS SQUIBB COMPANY, priority 2017, dated 2022).

Tests used:
Assay type in all cases: cell-based
human TLR7 = molecular target: T1, human TLR7 (Homo sapiens, UniProt Q9NYK1); assay: TLR7 inhibition reporter assay (HEK-Blue SEAP reporter); settings: HEK-Blue cells overexpressing human TLR7; gardiquimod 7.5 μM; 22 hour incubation
T1 construct: host or cells: HEK-Blue cells
T1 sequence (Q9NYK1 27-1049): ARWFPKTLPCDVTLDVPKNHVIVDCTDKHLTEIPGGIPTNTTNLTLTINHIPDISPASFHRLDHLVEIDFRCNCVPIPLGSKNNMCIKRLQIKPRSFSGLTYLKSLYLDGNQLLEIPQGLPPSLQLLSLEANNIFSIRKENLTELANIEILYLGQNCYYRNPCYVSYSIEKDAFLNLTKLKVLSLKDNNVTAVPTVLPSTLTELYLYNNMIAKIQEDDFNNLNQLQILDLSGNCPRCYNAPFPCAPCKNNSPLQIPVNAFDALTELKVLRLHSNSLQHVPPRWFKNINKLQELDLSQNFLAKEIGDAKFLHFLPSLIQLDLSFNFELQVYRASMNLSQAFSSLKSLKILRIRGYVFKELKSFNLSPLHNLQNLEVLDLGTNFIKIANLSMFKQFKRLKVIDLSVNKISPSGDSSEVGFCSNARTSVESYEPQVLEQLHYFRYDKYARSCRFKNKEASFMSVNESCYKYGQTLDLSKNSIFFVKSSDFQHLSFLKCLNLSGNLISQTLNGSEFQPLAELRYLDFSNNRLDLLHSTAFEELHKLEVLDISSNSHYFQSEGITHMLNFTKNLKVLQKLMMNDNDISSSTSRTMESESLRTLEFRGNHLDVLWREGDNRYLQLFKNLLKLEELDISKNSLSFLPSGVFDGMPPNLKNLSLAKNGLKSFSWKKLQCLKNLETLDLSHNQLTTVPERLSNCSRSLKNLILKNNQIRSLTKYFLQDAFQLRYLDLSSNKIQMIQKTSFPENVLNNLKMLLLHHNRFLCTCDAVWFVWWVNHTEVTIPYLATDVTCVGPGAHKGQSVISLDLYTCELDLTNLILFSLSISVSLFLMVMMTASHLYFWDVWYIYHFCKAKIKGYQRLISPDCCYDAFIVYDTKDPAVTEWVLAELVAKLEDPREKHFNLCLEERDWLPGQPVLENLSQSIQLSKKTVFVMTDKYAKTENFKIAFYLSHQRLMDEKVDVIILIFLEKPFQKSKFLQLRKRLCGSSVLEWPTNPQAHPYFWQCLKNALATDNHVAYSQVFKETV
In short: (§1)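 Screening used HEK-Blue cells overexpressing one human TLR (7, 8 or 9) and an IFN-β minimal promoter–NF-κB/AP-1 SEAP construct. Stimulation lasted 22 h at 37 °C with receptor-specific agonist: gardiquimod, R848 or ODN2006 at 7.5 μM, 15.9 μM and 5 nM.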

human TLR8 = molecular target: T2, human TLR8 (Homo sapiens, UniProt Q9NR97); assay: TLR8 inhibition reporter assay (HEK-Blue SEAP reporter); settings: HEK-Blue cells overexpressing human TLR8; R848 15.9 μM; 22 hour incubation
T2 construct: host or cells: HEK-Blue cells
T2 sequence (Q9NR97 27-1041): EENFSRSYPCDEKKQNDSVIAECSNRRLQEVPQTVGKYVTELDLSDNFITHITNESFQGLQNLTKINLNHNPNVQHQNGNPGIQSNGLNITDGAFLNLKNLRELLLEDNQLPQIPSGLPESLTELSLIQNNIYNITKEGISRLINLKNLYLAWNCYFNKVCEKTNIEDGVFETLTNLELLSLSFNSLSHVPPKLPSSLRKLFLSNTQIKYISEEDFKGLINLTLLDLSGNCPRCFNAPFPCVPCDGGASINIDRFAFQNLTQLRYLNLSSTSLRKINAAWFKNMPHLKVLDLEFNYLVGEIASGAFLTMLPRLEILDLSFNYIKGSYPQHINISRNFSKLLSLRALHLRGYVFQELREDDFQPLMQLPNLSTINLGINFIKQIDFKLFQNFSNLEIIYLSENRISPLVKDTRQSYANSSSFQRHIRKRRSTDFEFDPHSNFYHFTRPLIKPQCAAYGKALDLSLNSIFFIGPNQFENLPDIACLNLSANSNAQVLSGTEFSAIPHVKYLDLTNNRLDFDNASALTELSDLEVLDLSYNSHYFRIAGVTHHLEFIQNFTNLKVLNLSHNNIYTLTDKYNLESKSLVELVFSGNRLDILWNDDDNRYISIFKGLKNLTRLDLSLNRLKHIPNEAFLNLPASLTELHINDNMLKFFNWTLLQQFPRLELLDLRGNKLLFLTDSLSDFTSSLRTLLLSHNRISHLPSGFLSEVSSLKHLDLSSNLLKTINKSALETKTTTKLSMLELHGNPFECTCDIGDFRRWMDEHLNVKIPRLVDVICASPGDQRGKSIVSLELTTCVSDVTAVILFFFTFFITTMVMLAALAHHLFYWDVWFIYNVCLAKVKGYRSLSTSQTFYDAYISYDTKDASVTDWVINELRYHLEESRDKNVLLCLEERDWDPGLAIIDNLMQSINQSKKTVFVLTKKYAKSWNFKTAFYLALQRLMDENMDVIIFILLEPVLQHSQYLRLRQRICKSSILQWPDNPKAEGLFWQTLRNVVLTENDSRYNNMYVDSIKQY
In short: as §1

human TLR9 = molecular target: T3, human TLR9 (Homo sapiens, UniProt Q9NR96); assay: TLR9 inhibition reporter assay (HEK-Blue SEAP reporter); settings: HEK-Blue cells overexpressing human TLR9; ODN2006 5 nM; 22 hour incubation
T3 construct: host or cells: HEK-Blue cells
T3 sequence (Q9NR96 26-1032): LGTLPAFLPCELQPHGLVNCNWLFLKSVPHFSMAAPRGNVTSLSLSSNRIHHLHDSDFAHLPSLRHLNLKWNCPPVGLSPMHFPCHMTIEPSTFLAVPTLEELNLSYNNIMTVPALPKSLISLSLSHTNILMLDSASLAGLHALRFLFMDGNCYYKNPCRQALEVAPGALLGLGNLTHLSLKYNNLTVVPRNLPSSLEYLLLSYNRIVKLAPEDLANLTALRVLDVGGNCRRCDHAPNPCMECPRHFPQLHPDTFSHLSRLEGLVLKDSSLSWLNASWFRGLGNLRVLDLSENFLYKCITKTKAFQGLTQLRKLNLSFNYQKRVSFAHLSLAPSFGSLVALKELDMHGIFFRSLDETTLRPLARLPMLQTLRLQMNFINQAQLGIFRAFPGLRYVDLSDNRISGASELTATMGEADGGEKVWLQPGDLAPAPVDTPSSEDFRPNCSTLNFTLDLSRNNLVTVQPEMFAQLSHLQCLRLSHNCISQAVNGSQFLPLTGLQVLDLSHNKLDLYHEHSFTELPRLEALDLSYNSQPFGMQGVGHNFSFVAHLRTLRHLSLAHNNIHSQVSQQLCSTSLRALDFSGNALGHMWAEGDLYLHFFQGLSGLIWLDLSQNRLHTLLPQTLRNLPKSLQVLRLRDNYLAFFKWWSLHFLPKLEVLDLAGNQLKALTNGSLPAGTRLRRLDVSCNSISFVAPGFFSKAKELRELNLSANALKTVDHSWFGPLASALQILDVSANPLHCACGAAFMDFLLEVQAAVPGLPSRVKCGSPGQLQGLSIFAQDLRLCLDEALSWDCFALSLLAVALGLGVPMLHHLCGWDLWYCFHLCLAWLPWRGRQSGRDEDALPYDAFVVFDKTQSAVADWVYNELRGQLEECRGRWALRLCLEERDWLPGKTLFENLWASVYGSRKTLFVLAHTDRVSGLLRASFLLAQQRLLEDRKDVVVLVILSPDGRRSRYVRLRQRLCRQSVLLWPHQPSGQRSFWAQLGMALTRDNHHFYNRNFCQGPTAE
In short: as §1

IC50 (human TLR7) | IC50 (human TLR8) | IC50 (human TLR9) | Structure (SMILES)
144 nM | 174 nM | 555 nM | COc1ccc(-c2[nH]c3ccc(NC4CCC(N5CCN(C6CCN(C)CC6)CC5)CC4)cc3c2C(C)C)cc1OC (stereo not drawn) [Example 61, 2-(3,4-dimethoxyphenyl)-3-isopropyl-N-(4-(4-(1-methylpiperidin-4-yl)piperazin-1-yl)cyclohexyl)-1H-indol-5-amine]
211 nM | 212 nM | 323 nM | COc1ccc(-c2[nH]c3ccc(NC4CCC(N5CCN(C6CCN(C)CC6)CC5)CC4)cc3c2C(C)C)cc1OC (stereo not drawn) [Example 62, 2-(3,4-dimethoxyphenyl)-3-isopropyl-N-(4-(4-(1-methylpiperidin-4-yl)piperazin-1-yl)cyclohexyl)-1H-indol-5-amine]
34 nM | 11 nM | 676 nM | COc1ccc(-c2[nH]c3ccc(N4CCN(C5CC(C)(C)NC(C)(C)C5)CC4)cc3c2C(C)C)cc1OC [Example 68, 2-(3,4-dimethoxyphenyl)-3-isopropyl-5-(4-(2,2,6,6-tetramethyl-112-piperidin-4-yl)piperazin-1-yl)-1H-indole]
1160 nM | 14300 nM | 2610 nM | CCc1c(-c2ccc(OC)c(OC)c2)[nH]c2cc(C(C)C)c(N3CCN(C4CCN(C(C)C)CC4)CC3)cc12 [Example 69, 2-(3,4-dimethoxyphenyl)-3-ethyl-6-isopropyl-5-(4-(1-isopropylpiperidin-4-yl)piperazin-1-yl)-1H-indole]
130 nM | 3.1 nM | 1700 nM | COc1ccc(-c2[nH]c3ccc(N4CCC(N5CCCC5)CC4)cc3c2C(C)C)cc1OC [Example 70, 2-(3,4-dimethoxyphenyl)-3-isopropyl-5-(4-(pyrrolidin-1-yl)piperidin-1-yl)-1H-indole]
15 nM | 2.8 nM | 1390 nM | CNCCNC1CCN(c2ccc3[nH]c(-c4ccc(OC)c(OC)c4)c(C(C)C)c3c2)CC1 [Example 72, N1-(1-(2-(3,4-dimethoxyphenyl)-3-isopropyl-1H-indol-5-yl)piperidin-4-yl)-N2-methylethane-1,2-diamine]
63 nM | 65 nM | 2110 nM | COc1ccc(-c2[nH]c3ccc(N4CCC(N5CCNCC5)CC4)cc3c2C(C)C)cc1OC [Example 73, 2-(3,4-dimethoxyphenyl)-3-isopropyl-5-(4-(piperazin-1-yl)piperidin-1-yl)-1H-indole]
62 nM | 15 nM | 5210 nM | COc1ccc(-c2[nH]c3ccc(N4CCC(N5CCOCC5)CC4)cc3c2C(C)C)cc1OC [Example 74, 4-(1-(2-(3,4-dimethoxyphenyl)-3-isopropyl-1H-indol-5-yl)piperidin-4-yl)morpholine]
18 nM | 7.8 nM | 782 nM | COc1ccc(-c2[nH]c3ccc(N4CCC(NCCCN(C)C)CC4)cc3c2C(C)C)cc1OC [Example 76, N1-(1-(2-(3,4-dimethoxyphenyl)-3-isopropyl-H-indol-5-yl)piperidin-4-yl)-N3,N3-dimethylpropane-1,3-diamine]
61 nM | 9.6 nM | 1980 nM | COc1ccc(-c2[nH]c3ccc(N4CCC(NCCCN(C)C)CC4)cc3c2C(C)C)cc1OC [Example 77, N1-(1-(2-(3,4-dimethoxyphenyl)-3-isopropyl-H-indol-5-yl)piperidin-4-yl)-N3,N3-dimethylpropane-1,3-diamine]
50 nM | 14 nM | 929 nM | CCN1CCN(C2CCN(c3ccc4[nH]c(-c5ccc(OC)c(OC)c5)c(C(C)C)c4c3)CC2)CC1 [Example 78, 2-(3,4-dimethoxyphenyl)-5-(4-(4-ethylpiperazin-1-yl)piperidin-1-yl)-3-isopropyl-1H-indole]
9.8 nM | 4.7 nM | 640 nM | COc1ccc(-c2[nH]c3ccc(N4CCC(NC5CCN(C)CC5)CC4)cc3c2C(C)C)cc1OC [Example 79, 1-(2-(3,4-dimethoxyphenyl)-3-isopropyl-1H-indol-5-yl)-N-(1-methylpiperidin-4-yl)piperidin-4-amine]
130 nM | 19 nM | 5790 nM | COc1ccc(-c2[nH]c3ccc(N4CCC(N5CC(C)OC(C)C5)CC4)cc3c2C(C)C)cc1OC (stereo not drawn) [Example 80, 4-(1-(2-(3,4-dimethoxyphenyl)-3-isopropyl-H-indol-5-yl)piperidin-4-yl)-2,6-dimethylmorpholine]
44 nM | 10 nM | 1050 nM | COc1ccc(-c2[nH]c3ccc(N4CCC(N(C)CCCN(C)C)CC4)cc3c2C(C)C)cc1OC [Example 81, N1-(1-(2-(3,4-dimethoxyphenyl)-3-isopropyl-1H-indol-5-yl)piperidin-4-yl)-N1,N3,N3-trimethylpropane-1,3-diamine]
16 nM | 4.7 nM | 999 nM | CCN1CCCN(C2CCN(c3ccc4[nH]c(-c5ccc(OC)c(OC)c5)c(C(C)C)c4c3)CC2)CC1 [Example 84, 2-(3,4-dimethoxyphenyl)-5-(4-(4-ethyl-1,4-diazepan-1-yl)piperidin-1-yl)-3-isopropyl-1H-indole]
